According to patent US7238793B2 (Duke University, priority 2001, dated 2007):

Test system: 5X-Gal4-tata-Luc or TK-Gal4-Luc
Assay: Autonomous repressor activity, Gal4 DBD fusions on Gal4-responsive reporter genes in HepG2 cells
Type: cell-based
Conditions: fused to Gal4 DBD, both reporter genes

NCoR: known transcriptional repressor, nuclear receptor co-repressor
effect on transcriptional activity of Gal4-responsive reporter genes: inhibit
